pEC50: −log10 of the molar value.
Molecular target: FXR (Homo sapiens (Human), UniProt Q96RI1)
Test: FXR EC50 (FXR agonist activity reported with each example)
Format: cell-based

Sequence of FXR (Q96RI1 262-486): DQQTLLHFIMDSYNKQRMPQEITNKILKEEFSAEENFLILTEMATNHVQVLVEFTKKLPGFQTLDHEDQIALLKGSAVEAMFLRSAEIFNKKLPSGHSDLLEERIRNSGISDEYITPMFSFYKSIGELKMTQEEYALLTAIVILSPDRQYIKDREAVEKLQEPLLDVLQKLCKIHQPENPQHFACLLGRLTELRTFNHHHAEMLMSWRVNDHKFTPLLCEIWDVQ

Row | SMILES | pEC50
1 | O=C(O)c1cc(-c2noc(C34CCC(/C=C/c5c(-c6c(Cl)cncc6Cl)noc5C5CC5)(CC3)CC4)n2)ccc1OC(F)F [Example 446, (E)-5-(5-(4-(2-(5-cyclopropyl-3-(3,5-dichloropyridin-4-yl)isoxazol-4-yl)vinyl)bicyclo[2.2.2]octan-1-yl)-1,2,4-oxadiazol-3-yl)-2-(difluoromethoxy)benzoic acid] | 6.46
2 | O=C(O)c1ccc(C23CCC(COCc4c(-c5ccccc5OC(F)(F)F)noc4C4CC4)(CC2)CO3)cc1 [Example 205] | 6.35
3 | O=C(O)c1cc(OCC2CC2)c2cc(OCC34CCC(OCc5c(-c6c(Cl)cncc6Cl)noc5C5CC5)(CC3)CC4)c(F)cc2n1 [Example 314, 6-((4-((5-cyclopropyl-3-(3,5-dichloropyridin-4-yl)isoxazol-4-yl)methoxy)bicyclo[2.2.2]octan-1-yl)methoxy)-4-(cyclopropylmethoxy)-7-fluoroquinoline-2-carboxylic acid] | 7.17
4 | O=C(O)c1cccc(-c2noc(C34CCC(OCc5c(-c6c(Cl)cccc6Cl)noc5C5CC5)(CC3)CO4)n2)c1 [Example 193, 3-(5-(4-((5-cyclopropyl-3-(2,6-dichlorophenyl)isoxazol-4-yl)methoxy)-2-oxabicyclo[2.2.2]octan-1-yl)-1,2,4-oxadiazol-3-yl)benzoic acid] | 7.59
5 | O=C(O)c1cccc(-c2nnc(C34CCC(OCc5c(-c6ccccc6OC(F)(F)F)noc5C5CC5)(CC3)CC4)s2)c1 [Example 19, 3-(5-(4-((5-cyclopropyl-3-(2-(trifluoromethoxy)phenyl)isoxazol-4-yl)methoxy)bicyclo[2.2.2]octan-1-yl)-1,3,4-thiadiazol-2-yl)benzoic acid] | 5.77
6 | COc1ccc(C(=O)O)cc1-c1noc(C23CCC(COCc4c(-c5c(Cl)cncc5Cl)noc4C4CC4)(CC2)CC3)n1 [Example 487, 3-(5-(4-(((5-cyclopropyl-3-(3,5-dichloropyridin-4-yl)isoxazol-4-yl)methoxy)methyl)bicyclo[2.2.2]octan-1-yl)-1,2,4-oxadiazol-3-yl)-4-methoxybenzoic acid] | 5.27
7 | Cc1cc(C#CC23CCC(OCc4c(-c5c(Cl)cncc5Cl)noc4C4CC4)(CC2)CC3)cnc1C(=O)O [Example 388] | 7.26
8 | COc1c(C#CC23CCC(OCc4c(-c5c(Cl)cncc5Cl)noc4C4CC4)(CC2)CC3)cccc1C(=O)O [Example 381] | 6.66
9 | O=C(O)c1csc(C23CCC(COCc4c(-c5c(Cl)cccc5Cl)noc4C4CC4)(CC2)CC3)n1 [Example 162, 2-(4-(((5-cyclopropyl-3-(2,6-dichlorophenyl)isoxazol-4-yl)methoxy)methyl)bicyclo[2.2.2]octan-1-yl)thiazole-4-carboxylic acid] | 5.89
10 | O=C(O)c1ccc(C(O)C23CCC(OCc4c(-c5c(Cl)cccc5Cl)noc4C4CC4)(CC2)CC3)c(F)c1 (stereo not shown) [Example 125, 4-((4-((5-cyclopropyl-3-(2,6-dichlorophenyl)isoxazol-4-yl)methoxy)bicyclo[2.2.2]octan-1-yl)(hydroxy)methyl)-3-fluorobenzoic acid] | 5.80
11 | COc1ccc(-c2noc(C34CCC(OCc5c(-c6c(Cl)cncc6Cl)noc5C5CC5)(CC3)CC4)n2)c(F)c1C(=O)O [Example 250, 3-(5-(4-((5-cyclopropyl-3-(3,5-dichloropyridin-4-yl)isoxazol-4-yl)methoxy)bicyclo[2.2.2]octan-1-yl)-1,2,4-oxadiazol-3-yl)-2-fluoro-6-methoxybenzoic acid] | 6.14
12 | COc1cc(C(=O)O)c(OC)c(-c2noc(C34CCC(OCc5c(-c6c(Cl)cncc6Cl)noc5C5CC5)(CC3)CC4)n2)c1 [Example 246, 3-(5-(4-((5-cyclopropyl-3-(3,5-dichloropyridin-4-yl)isoxazol-4-yl)methoxy)bicyclo[2.2.2]octan-1-yl)-1,2,4-oxadiazol-3-yl)-2,5-dimethoxybenzoic acid] | 7.05
13 | O=C(O)c1cc(C(F)(F)F)c2cc(OCC34CCC(/C=C/c5c(-c6c(Cl)cncc6Cl)noc5C5CC5)(CC3)CC4)ccc2n1 [Example 452, (E)-6-((4-(2-(5-cyclopropyl-3-(3,5-dichloropyridin-4-yl)isoxazol-4-yl)vinyl)bicyclo[2.2.2]octan-1-yl)methoxy)-4-(trifluoromethyl)quinoline-2-carboxylic acid] | 7.85
14 | O=C(O)c1ccc2nc(C34CCC(COCc5c(-c6c(Cl)cccc6Cl)noc5C5CC5)(CC3)CC4)oc2c1 [Example 178, 2-(4-(((5-cyclopropyl-3-(2,6-dichlorophenyl)isoxazol-4-yl)methoxy)methyl)bicyclo[2.2.2]octan-1-yl)benzo[d]oxazole-6-carboxylic acid] | 6.04
15 | COC(=O)c1ccc(NC(=O)C23CCC(COCc4c(-c5c(Cl)cccc5Cl)noc4C4CC4)(CC2)CC3)c(Cl)c1 [Intermediate 170A, methyl 3-chloro-4-(4-(((5-cyclopropyl-3-(2,6-dichlorophenyl)isoxazol-4-yl)methoxy)methyl)bicyclo[2.2.2]octane-1-carboxamido)benzoate] | 5.62
16 | COc1cc(C(=O)O)cc(-c2noc(C34CCC(OCc5c(-c6c(Cl)cncc6Cl)noc5C5CC5)(CC3)CC4)n2)c1 [Example 239, 3-(5-(4-((5-cyclopropyl-3-(3,5-dichloropyridin-4-yl)isoxazol-4-yl)methoxy)bicyclo[2.2.2]octan-1-yl)-1,2,4-oxadiazol-3-yl)-5-methoxybenzoic acid] | 7.10

Row | SMILES | pEC50
17 | CC(C)(C(N)=O)c1ccc(C23CCC(/C=C/c4c(-c5c(Cl)cncc5Cl)noc4C4CC4)(CC2)CO3)cc1 [Example 481, (E)-2-(4-(4-(2-(5-cyclopropyl-3-(3,5-dichloropyridin-4-yl)isoxazol-4-yl)vinyl)-2-oxabicyclo[2.2.2]octan-1-yl)phenyl)-2-methylpropanamide] | 6.29
18 | O=C(O)c1cc(F)cc2nc(OCC34CCC(OCc5c(-c6c(Cl)cncc6Cl)noc5C5CC5)(CC3)CC4)sc12 [Example 463, 2-((4-((5-cyclopropyl-3-(3,5-dichloropyridin-4-yl)isoxazol-4-yl)methoxy)bicyclo[2.2.2]octan-1-yl)methoxy)-5-fluorobenzo[d]thiazole-7-carboxylic acid] | 7.39
19 | NC(=O)c1ccc(C23CCC(CNc4c(-c5c(Cl)cccc5Cl)noc4C4CC4)(CC2)CO3)cc1 [Example 208, 4-(4-(((5-cyclopropyl-3-(2,6-dichlorophenyl)isoxazol-4-yl)amino)methyl)-2-oxabicyclo[2.2.2]octan-1-yl)benzamide] | 6.15
20 | O=C(O)c1ccc(OCC23CCC(OCc4c(-c5c(Cl)cncc5Cl)noc4C4CC4)(CC2)CC3)c2ncccc12 [Example 302] | 7.27
21 | O=C(O)c1cc(-c2nc(C34CCC(OCc5c(-c6c(Cl)cccc6Cl)noc5C5CC5)(CC3)CC4)no2)ccn1 [Example 22, 4-(3-(4-((5-cyclopropyl-3-(2,6-dichlorophenyl)isoxazol-4-yl)methoxy)bicyclo[2.2.2]octan-1-yl)-1,2,4-oxadiazol-5-yl)picolinic acid] | 6.68
22 | O=C(O)c1cccc(CNC(=O)C23CCC(OCc4c(-c5c(Cl)cccc5Cl)noc4C4CC4)(CC2)CC3)c1 [Example 143, 3-((4-((5-cyclopropyl-3-(2,6-dichlorophenyl)isoxazol-4-yl)methoxy)bicyclo[2.2.2]octane-1-carboxamido)methyl)benzoic acid] | 5.89
23 | O=C(O)c1cc(OC(F)F)c2cc(OCC34CCC(OCc5c(-c6c(Cl)cncc6Cl)noc5C5CC5)(CC3)CO4)ccc2n1 [Example 471, 6-((4-((5-cyclopropyl-3-(3,5-dichloropyridin-4-yl)isoxazol-4-yl)methoxy)-2-oxabicyclo[2.2.2]octan-1-yl)methoxy)-4-(difluoromethoxy)quinoline-2-carboxylic acid] | 6.70
24 | O=C(O)c1cccc(-c2nc(C34CCC(OCc5c(-c6ccccc6OC(F)(F)F)noc5C5CC5)(CC3)CC4)no2)n1 [Example 61] | 6.08
25 | COc1cc(C(=O)O)nc2ccc(OCC34CCC(/C=C/c5c(-c6c(Cl)cncc6Cl)noc5C5CC5)(CC3)CC4)cc12 [Example 508, (E)-6-((4-(2-(5-cyclopropyl-3-(3,5-dichloropyridin-4-yl)isoxazol-4-yl)vinyl)bicyclo[2.2.2]octan-1-yl)methoxy)-4-methoxyquinoline-2-carboxylic acid] | 7.00
26 | O=C(O)c1cc(OCC23CCC(/C=C/c4c(-c5c(Cl)cncc5Cl)noc4C4CC4)(CC2)CC3)cc(C(F)(F)F)c1 [Example 506, (E)-3-((4-(2-(5-cyclopropyl-3-(3,5-dichloropyridin-4-yl)isoxazol-4-yl)vinyl)bicyclo[2.2.2]octan-1-yl)methoxy)-5-(trifluoromethyl)benzoic acid] | 8.22
27 | COc1c(C(=O)O)cccc1-c1noc(C23CCC(/C=C/c4c(-c5c(Cl)cncc5Cl)noc4C4CC4)(CC2)CC3)n1 [Example 448, (E)-3-(5-(4-(2-(5-cyclopropyl-3-(3,5-dichloropyridin-4-yl)isoxazol-4-yl)vinyl)bicyclo[2.2.2]octan-1-yl)-1,2,4-oxadiazol-3-yl)-2-methoxybenzoic acid] | 8.00
28 | COC(=O)c1cccc(-c2noc(C34CCC(OCc5c(-c6ccccc6C(F)(F)F)noc5C5CC5)(CC3)CC4)n2)c1 [Example 36] | 5.46
29 | O=C(O)c1cc(C(F)(F)F)cc(C23CCC(/C=C/c4c(-c5c(Cl)cncc5Cl)noc4C4CC4)(CC2)CO3)c1 [Example 491, (E)-3-(4-(2-(5-cyclopropyl-3-(3,5-dichloropyridin-4-yl)isoxazol-4-yl)vinyl)-2-oxabicyclo[2.2.2]octan-1-yl)-5-(trifluoromethyl)benzoic acid] | 7.59
30 | CCOc1cc(OCC23CCC(OCc4c(-c5c(Cl)cncc5Cl)noc4C4CC4)(CC2)CC3)cnc1C(=O)O [Example 294, 5-((4-((5-cyclopropyl-3-(3,5-dichloropyridin-4-yl)isoxazol-4-yl)methoxy)bicyclo[2.2.2]octan-1-yl)methoxy)-3-ethoxypicolinic acid] | 7.49
31 | O=C(O)c1cccc(C23CCC(COCc4c(-c5c(Cl)cccc5Cl)noc4C4CC4)(CC2)CO3)c1 [Example 195, 3-(4-(((5-cyclopropyl-3-(2,6-dichlorophenyl)isoxazol-4-yl)methoxy)methyl)-2-oxabicyclo[2.2.2]octan-1-yl)benzoic acid] | 7.33
